Results published in US8404738B2 (Hoffmann-La Roche Inc., priority 2011, dated 2013).
Where two headings read alike, the source gives them in different places.

Assays:
[1] = test system: p21 promoter-luciferase construct; assay: p21 reporter gene induction (HeLa cells, p21 promoter-luciferase construct); settings: for p21 RP3: relative gene level of p21 compared to MS275 at 3 μM; for p21 RP10: relative level of p21 compared to MS275 at 10 μM; for p21 RP30: relative level of p21 compared to MS275 at 30 μM;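 on all read-outs here: transfected HeLa cells exposed to compound for 15 h, luciferase luminescence read from lysates, p21 promoter lacks p53 site, proxy for cellular HDAC1/2/3 inhibition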
Protocol: As a surrogate for in-cell HDAC1/2/3 inhibition, p21 induction was used as a counterscreen to evaluate the selectivity of the compounds in the present invention toward HDAC6 or HDAC8.
The novel compounds of the present invention were tested for their ability to induce p21 gene expression using a reporter gene assay involving HeLa cells transfected with a p21 promoter-luciferase construct. The p21 promoter contained the Sp1/Sp3 binding site for HDAC but not the upstream p53 binding site. Briefly, the day before transfection, HeLa cells were seeded at 11,000 cells/well in a 96-well culture plate and incubated at 37° C. in 5% CO2 overnight. A transfection media was prepared prior to transfection according to the following procedure: (1) 5 μl serum-free DMEM, 0.15 μl Fugene 6 reagent, 40 ng p21-luc, 10 ng GFP were mixed gently and incubated at rt for 30 minutes; (2), then 98 μl DMEM (with 10% FBS, 1% penicillin and streptomycin) was added to the DNA: Fugene 6 reagent complex and mixed gently. For transfection, the medium was removed and replaced with 100 μl/well transfection media which was prepared according to the procedure above. After incubating the cells for 24 hours at 37° C. in 5% CO2, fresh media and test compounds were added to the wells and the cells further incubated for 15 hours at 37° C. in 5% CO2. Cells were lysed by adding 80 μl/well of a cell culture lysis reagent (Promega). 50 μl of each lysate was taken for GFP detection using an excitation wavelength of 486 nm and detection at 527 nm. 100 μl luciferase assay reagent (Promega) was then added to every 20 μl cell lysate for luminometer detection.

[2] = target: T1, HDAC6 (Homo sapiens, UniProt Q9UBN7); assay: Tubulin acetylation cytoblot assay (A549 cells); assay type: cell-based; settings: 17-18 h incubation, tubulin acetylation as marker of HDAC6 inhibition, read-out: Tub-Ac EC50
T1 construct: endogenous in cells; host or cells: A549 cells
T1 sequence (Q9UBN7 1-1215): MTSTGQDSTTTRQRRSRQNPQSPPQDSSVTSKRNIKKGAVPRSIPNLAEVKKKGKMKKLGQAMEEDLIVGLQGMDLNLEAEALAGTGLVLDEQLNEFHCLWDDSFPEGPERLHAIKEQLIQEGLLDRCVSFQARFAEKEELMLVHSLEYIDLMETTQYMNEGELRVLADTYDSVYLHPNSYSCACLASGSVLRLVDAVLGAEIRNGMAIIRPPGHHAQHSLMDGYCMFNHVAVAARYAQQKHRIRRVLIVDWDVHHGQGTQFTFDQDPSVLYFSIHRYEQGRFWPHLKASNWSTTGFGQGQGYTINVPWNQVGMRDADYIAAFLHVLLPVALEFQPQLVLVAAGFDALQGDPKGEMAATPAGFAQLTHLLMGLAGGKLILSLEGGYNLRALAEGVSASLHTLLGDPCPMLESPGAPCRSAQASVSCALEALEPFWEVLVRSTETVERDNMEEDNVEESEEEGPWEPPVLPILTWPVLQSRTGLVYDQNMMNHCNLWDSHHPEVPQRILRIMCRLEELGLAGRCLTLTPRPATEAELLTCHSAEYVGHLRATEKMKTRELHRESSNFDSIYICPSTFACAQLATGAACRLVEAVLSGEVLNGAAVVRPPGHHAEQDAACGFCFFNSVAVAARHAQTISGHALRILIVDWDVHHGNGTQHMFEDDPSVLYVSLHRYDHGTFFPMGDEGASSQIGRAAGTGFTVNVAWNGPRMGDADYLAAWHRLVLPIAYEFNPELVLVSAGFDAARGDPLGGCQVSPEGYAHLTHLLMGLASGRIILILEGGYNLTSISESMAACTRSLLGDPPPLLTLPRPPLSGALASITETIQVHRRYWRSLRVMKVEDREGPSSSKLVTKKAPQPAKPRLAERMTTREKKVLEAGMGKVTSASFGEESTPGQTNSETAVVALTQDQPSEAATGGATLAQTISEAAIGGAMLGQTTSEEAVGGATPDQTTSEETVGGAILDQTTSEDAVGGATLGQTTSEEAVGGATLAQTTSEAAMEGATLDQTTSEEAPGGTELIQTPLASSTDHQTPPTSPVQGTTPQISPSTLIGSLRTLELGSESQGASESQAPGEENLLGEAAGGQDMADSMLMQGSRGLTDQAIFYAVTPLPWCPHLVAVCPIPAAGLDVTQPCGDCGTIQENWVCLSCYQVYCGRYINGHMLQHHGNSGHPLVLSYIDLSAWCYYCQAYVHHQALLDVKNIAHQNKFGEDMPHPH
Protocol: Tubulin Acetylation Induction by Novel Compounds: Tubulin Acetylation Cytoblot Assay.
Tubulin acetylation is a PD marker for HDAC6 inhibition. The extent of tubulin acetylation represents the inhibitory effect on HDAC6.
Novel compounds were tested for their ability to inhibit HDAC6 using a cell-based deacetylation assay. Tubulin acetylation was detected by the anti-acetylated tubulin antibody (Sigma) and horse radish peroxidase (HRP) conjugated secondary antibody (KangChen Bio. Tech.). […] 20 μl of diluted compound solution was transferred to the cell culture plate and incubated for 17-18 h. After medium removal and fixation by formaldehyde (3.7% paraformaldehyde in TBS), the cells in the plates were treated with 180 μl of −20° C. MeOH and incubated for 5 min at rt. The cell lysis was incubated with 75 μl of primary anti-acetylated tubulin antibody and secondary HRP conjugated antibody solution (1:750 anti-acetylated tubulin, 1:750 HRP conjugated anti-mouse IgG in antibody dilution buffer not containing sodium azide) for 4 h at 4° C. By adding the HRP substrate, enhanced chemiluminescence (ECL) reagent (GE Healthcare) generated luminescence corresponding to the level of tubulin acetylation. So that 75 μl of ECL was added into the wells and the luminescence from each well was immediately quantified by the plate reader. Based on the luminescence reading, the Tub-Ac EC50s against HDAC6 of the tested compounds were calculated by plotting the curve with XLfit4.0 software. Inhibition %=[signal(sample)−Mean(bottom)]×100/[Mean(top)−Mean(bottom)]

[3] = target: T2, recombinant human HDAC8 (Homo sapiens, UniProt Q9BY41); assay: HDAC8 inhibition: recombinant HDAC8 fluorometric assay; assay type: biochemical
T2 construct: made in house; host or cells: insect cells
T2 sequence (Q9BY41 1-377): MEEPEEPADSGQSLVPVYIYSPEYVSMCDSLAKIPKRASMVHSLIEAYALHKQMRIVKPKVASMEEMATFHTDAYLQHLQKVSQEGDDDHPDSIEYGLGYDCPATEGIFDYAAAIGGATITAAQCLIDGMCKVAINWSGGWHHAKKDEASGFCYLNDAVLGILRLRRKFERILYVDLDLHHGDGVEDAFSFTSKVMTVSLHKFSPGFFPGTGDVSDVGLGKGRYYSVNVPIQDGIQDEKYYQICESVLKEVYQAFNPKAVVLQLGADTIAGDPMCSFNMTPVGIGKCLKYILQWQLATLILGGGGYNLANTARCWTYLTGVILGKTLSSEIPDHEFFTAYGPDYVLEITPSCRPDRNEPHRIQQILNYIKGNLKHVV
Protocol: HDAC8 Inhibition by Novel Compounds: Recombinant HDAC8 Fluorometric Assay.
A competitive inhibitory assay of HDAC8 was carried out by using recombinant HDAC8 and a commercial substrate Ac-Arg-His-Lys-Lys(ε-acetyl)-AMC.
Compounds were tested for their ability to inhibit histone deacetylase 8 using an in vitro deacetylation assay. The enzyme source for this assay was recombinant human HDAC8 protein expressed and purified from insect cells. […] The substrate consisted of a commercial product Ac-Arg-His-Lys-Lys(ε-acetyl)-AMC (substrate is available from Cayman Chemical). […] 1 μl of half-log diluted compounds were added into wells and incubated for 15 min at rt. After that, 8 μl of substrate solution was transferred to the wells and incubated for 30 min at rt. After deacetylation of the substrate by incubation with HDAC8 enzyme, subsequent exposure to a developing reagent produced a fluorophore that was directly proportional to the level of deacetylation. […] The fluorescence signal was measured by a FlexStation3 plate reader (excitation wave length 340-360 nm; emission wave length 440-465 nm). The HDAC8 IC50 was calculated after normalization and curve fitting using XLfit4.0 software. Inhibition %=[Mean(top)−signal(sample)]×100/[Mean(top)−Mean(bottom)].

[4] = recombinant human HDAC8, substrate Ac-Arg-His-Lys-Lys(ε-acetyl)-AMC, read-out: HDAC8 IC50

EC50 [2] | IC50 [3, 4] | SMILES | p21 RP3 [1] | p21 RP10 [1] | p21 RP30 [1] | IC50 ([3]; HDAC8 IC50, recombinant human HDAC8, substrate Ac-Arg-His-Lys-Lys(ε-acetyl)-AMC)
– | 2.77 µM | O=C(NO)c1ccc(NC2CCN(S(=O)(=O)c3ccccc3)C2)cc1 (stereo not shown) [Example 84, 4-(1-Benzenesulfonyl-pyrrolidin-3-ylamino)-N-hydroxy-benzamide] | 0.13 | 0.02 | 0.01 | –
– | 1.54 µM | O=C(NO)c1ccc(NC2CCN(S(=O)(=O)c3ccc(Cl)cc3)C2)cc1 (stereo not shown) [Example 86, 4-[1-(4-Chloro-benzenesulfonyl)-pyrrolidin-3-ylamino]-N-hydroxy-benzamide] | 0.04 | 0.01 | 0.01 | –
– | 2.01 µM | O=C(NO)c1ccc(NC2CCN(S(=O)(=O)c3ccc(-c4ccccc4)cc3)C2)cc1 (stereo not shown) [Example 87, 4-[1-(Biphenyl-4-sulfonyl)-pyrrolidin-3-ylamino]-N-hydroxy-benzamide] | 0.20 | 0.00 | −0.03 | –
– | 1.35 µM | O=C(NO)c1ccc(NC2CCN(C(=O)c3ccccc3)C2)cc1 (stereo not shown) [Example 88, 4-(1-Benzoyl-pyrrolidin-3-ylamino)-N-hydroxy-benzamide] | 0.35 | 0.06 | 0.03 | –
– | 0.9 µM | O=C(NO)c1ccc(NC2CCN(C(=O)c3ccc(F)cc3)C2)cc1 (stereo not shown) [Example 89, 4-[1-(4-Fluoro-benzoyl)-pyrrolidin-3-ylamino]-N-hydroxy-benzamide] | 0.38 | 0.10 | 0.06 | –
– | 0.92 µM | COc1ccc(C(=O)N2CCC(Nc3ccc(C(=O)NO)cc3)C2)cc1 (stereo not shown) [Example 90, N-Hydroxy-4-[1-(4-methoxy-benzoyl)-pyrrolidin-3-ylamino]-benzamide] | 0.38 | 0.09 | 0.05 | –
0.15 µM | 0.98 µM | CC1(Nc2ccc(C(=O)NO)cc2)C(=O)N(CCc2ccccc2)c2ccccc21 (stereo not shown) [Example 94, N-hydroxy-4-(3-methyl-2-oxo-1-phenethyl-2,3-dihydro-1H-indol-3-ylamino)-benzamide] | – | – | – | –

Second part, the compound before the results:

SMILES | EC50 [2] | IC50 [3, 4] | p21 RP3 [1] | p21 RP10 [1] | p21 RP30 [1] | IC50 ([3]; HDAC8 IC50, recombinant human HDAC8, substrate Ac-Arg-His-Lys-Lys(ε-acetyl)-AMC)
C[C@H]1[C@H](Nc2ccc(C(=O)NO)cc2)CC(=O)N1c1ccc(Cl)cc1 (racemic) [Example 77, Trans-4-[1-(4-Chloro-phenyl)-2-methyl-5-oxo-pyrrolidin-3-ylamino]-N-hydroxy-benzamide] | 1.25 µM | 0.85 µM | 0.00 | 0.07 | 0.07 | –
O=C(NO)c1ccc(NC2CCN(c3ccccc3)C2=O)cc1 (stereo not shown) [Example 1] | 5.86 µM | – | 0.08 | 0.08 | 0.15 | 0.81 µM
O=C(NO)c1ccc(NC2CCN(c3ccc(C(F)(F)F)cc3)C2=O)cc1 (stereo not shown) [Example 12, N-Hydroxy-4-[2-oxo-1-(4-trifluoromethyl-phenyl)-pyrrolidin-3-ylamino]-benzamide] | – | 0.99 µM | 0.01 | 0.10 | 0.14 | –
CCCCc1ccc(N2CCC(Nc3ccc(C(=O)NO)cc3)C2=O)cc1 (stereo not shown) [Example 15, 4-[1-(4-Butyl-phenyl)-2-oxo-pyrrolidin-3-ylamino]-N-hydroxy-benzamide] | 4.9 µM | – | 0.09 | 0.06 | 0.04 | –
O=C(NO)c1ccc(NC2CCN(c3ccc(Cl)cc3Cl)C2=O)cc1 (stereo not shown) [Example 23, 4-[1-(2,4-Dichloro-phenyl)-2-oxo-pyrrolidin-3-ylamino]-N-hydroxy-benzamide] | – | 1.41 µM | 0.10 | 0.04 | 0.03 | –
O=C(NO)c1ccc(NC2CCN(CCc3ccccc3)C2=O)cc1 (stereo not shown) [Example 43, N-Hydroxy-4-(2-oxo-1-phenethyl-pyrrolidin-3-ylamino)-benzamide] | – | 0.39 µM | −0.02 | 0.22 | 0.62 | –
COc1ccc(CN2CCC(Nc3ccc(C(=O)NO)cc3)C2=O)cc1 (stereo not shown) [Example 46, N-Hydroxy-4-[1-(4-methoxy-benzyl)-2-oxo-pyrrolidin-3-ylamino]-benzamide] | – | 0.39 µM | 0.07 | 0.26 | 0.70 | –
O=C(NO)c1ccc(NC2CCN(C3(c4ccccc4)CCC3)C2=O)cc1 (stereo not shown) [Example 54, N-Hydroxy-4-[2-oxo-1-(1-phenyl-cyclobutyl)-pyrrolidin-3-ylamino]-benzamide] | – | 0.31 µM | 0.28 | 0.46 | 0.79 | –
CCC1(Nc2ccc(C(=O)NO)cc2)CCN(C(C)(C)c2ccccc2)C1=O (stereo not shown) [Example 65, 4-[3-Ethyl-1-(1-methyl-1-phenyl-ethyl)-2-oxo-pyrrolidin-3-ylamino]-N-hydroxy-benzamide] | – | 0.56 µM | 0.00 | 0.00 | 0.00 | –
O=C(NO)c1ccc(NC2CCN(c3ccc(Cl)c(Cl)c3)C2=O)cc1F (stereo not shown) [Example 68, 4-[1-(3,4-Dichloro-phenyl)-2-oxo-pyrrolidin-3-ylamino]-2-fluoro-N-hydroxy-benzamide] | 6.67 µM | – | −0.05 | 0.02 | 0.01 | –
CC(C)(c1ccccc1)N1CC(Nc2ccc(C(=O)NO)cc2)CC1=O (stereo not shown) [Example 76, N-Hydroxy-4-[1-(1-methyl-1-phenyl-ethyl)-5-oxo-pyrrolidin-3-ylamino]-benzamide] | 3.02 µM | 1.88 µM | – | – | – | –
